Measured values reported in ChEMBL document CHEMBL3988442, “University of Dundee, Small-Polar-MMV Screening Library” (2021).
Values joined by “and” are separate entries in the source; they are usually repeats but may differ in a detail not shown here. Equal entries are not always repeated.

What was measured:
[1] = biological target: T1, Histidine--tRNA ligase (Leishmania infantum, UniProt A4I591); test: Leishmania infantum Histidine tRNA synthetase (LdHisRS); assay type: functional
T1 sequence (A4I591 whole entry): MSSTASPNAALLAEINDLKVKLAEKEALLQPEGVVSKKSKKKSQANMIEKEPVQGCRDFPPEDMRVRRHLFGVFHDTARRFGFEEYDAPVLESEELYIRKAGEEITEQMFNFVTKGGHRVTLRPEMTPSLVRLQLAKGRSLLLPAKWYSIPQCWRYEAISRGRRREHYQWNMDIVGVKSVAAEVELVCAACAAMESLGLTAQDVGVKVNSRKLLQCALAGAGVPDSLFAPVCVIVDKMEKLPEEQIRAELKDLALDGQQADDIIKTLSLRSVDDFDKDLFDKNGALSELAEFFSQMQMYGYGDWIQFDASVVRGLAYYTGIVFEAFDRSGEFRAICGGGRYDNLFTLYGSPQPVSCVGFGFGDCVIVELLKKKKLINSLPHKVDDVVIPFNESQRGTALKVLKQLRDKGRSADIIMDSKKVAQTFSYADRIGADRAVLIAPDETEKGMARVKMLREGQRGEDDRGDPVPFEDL

[2] = biological target: Tryptophan--tRNA ligase (Mycobacterium tuberculosis (strain ATCC 25618 / H37Rv), UniProt P9WFT3); test: Biochemical assay for Mt-TrpRS; assay type: functional
Sequence of Tryptophan--tRNA ligase (P9WFT3 whole entry): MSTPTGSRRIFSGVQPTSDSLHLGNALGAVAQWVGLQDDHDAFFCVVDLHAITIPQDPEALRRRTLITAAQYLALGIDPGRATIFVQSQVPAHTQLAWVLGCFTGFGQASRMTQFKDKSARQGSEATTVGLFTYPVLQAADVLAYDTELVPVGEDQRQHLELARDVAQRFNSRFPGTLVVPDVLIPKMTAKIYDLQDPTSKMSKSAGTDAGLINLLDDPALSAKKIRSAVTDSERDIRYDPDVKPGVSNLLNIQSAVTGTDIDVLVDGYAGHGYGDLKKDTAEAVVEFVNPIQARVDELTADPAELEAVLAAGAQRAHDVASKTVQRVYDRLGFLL

[3] = system: Schistosoma mansoni; test: High throughput screening of compounds against Schistosoma mansoni motility; assay type: functional; design: dose or concentration left out as unconfirmed
[4] = microbe, parasite or virus in culture; conditions: Mycobacterium tuberculosis, 96 h, read-out: pIC50 (converted)
[5] = microbe, parasite or virus in culture; conditions: Mycobacterium tuberculosis, 72 h, read-out: pIC50 (converted)
[6] = system: Plasmodium falciparum; test: Calibr Malaria Delayed Death Assay SOP; assay type: functional, organism-based
[7] = biological target: ClpP1P2 (Mycobacterium tuberculosis (strain ATCC 25618 / H37Rv), UniProt P9WPC3+P9WPC5); test: in vitro assay to detect presence of AMC directly proportional to the activity of ClpP1P2. GHDDI collaboration.; assay type: functional
Sequence of ClpP1P2 (P9WPC5 whole entry): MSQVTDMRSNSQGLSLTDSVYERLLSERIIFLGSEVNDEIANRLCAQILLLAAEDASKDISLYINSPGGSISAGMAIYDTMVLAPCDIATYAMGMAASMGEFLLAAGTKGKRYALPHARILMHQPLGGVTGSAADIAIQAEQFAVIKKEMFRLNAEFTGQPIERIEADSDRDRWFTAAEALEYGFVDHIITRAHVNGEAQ
Sequence of ClpP1P2 (P9WPC3 whole entry): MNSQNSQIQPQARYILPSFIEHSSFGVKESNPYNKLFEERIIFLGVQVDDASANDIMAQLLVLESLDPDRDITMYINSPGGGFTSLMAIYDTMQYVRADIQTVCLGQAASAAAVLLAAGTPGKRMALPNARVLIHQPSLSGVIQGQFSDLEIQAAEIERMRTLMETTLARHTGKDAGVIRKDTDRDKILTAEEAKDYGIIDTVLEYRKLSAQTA

[8] = In vitro enzyme assay to detect hydrolysis of chlorophenol red-beta-D-[…] directly proportional to the number of Toxoplasma stably expressing beta-galactosidase; assay type: functional, organism-based, Toxoplasma gondii; conditions: Toxoplasma gondii

Compound | IC50 [2] [µM] | also measured
CC(C(=O)NCc1ccc(N2CCNC(=O)C2)cc1)n1cncn1 (stereo not given) |  | IC50 [1]: 60.1 µM and 77.1 µM
O=C(NC[C@H]1CCCC[C@H]1O)c1ccc2nc(-c3ccco3)[nH]c2c1 |  | IC50 [1]: 21 µM and 25.5 µM
O=C(CCc1n[nH]c2c1CCCC2)N1C[C@@H]2CC[C@H](C1)N(CC1CC1)C2 |  | IC50 [1]: 44.9 µM and 35.8 µM
CC(=O)NCC(=O)N1Cc2nccn2CC(COc2cccnc2)C1 (stereo not given) |  | IC50 [1]: > 100 µM
O=C(Cc1csc(-c2ccco2)n1)N1CCN(c2cnccn2)CC1 |  | IC50 [1]: 53.2 µM and 34.3 µM
Cn1ccnc1-c1cn(CCCc2csc(N)n2)nn1 |  | IC50 [1]: > 100 µM
CN1CCN(c2cccc(NC(=O)NCc3csc(N(C)C)n3)c2)C1=O |  | IC50 [1]: 38.9 µM and 48.5 µM
CCN1C(=O)C(C#N)=C(C)/C(=C/C2=Cc3ccccc3OC2)C1=O |  | IC50 [1]: 1.68 µM and 1.77 µM and 1.36 µM and 1.79 µM
NC(=O)C1CCCN(Cc2c(-c3ccco3)[nH]c3ncccc23)C1 (stereo not given) |  | IC50 [1]: 67.8 µM and 46 µM
CC(C(=O)Nc1ccc(N2CCCC2)nc1)n1cncn1 (stereo not given) |  | IC50 [1]: > 100 µM
Cn1cccc(NC(=O)NCCc2cccc(O)c2)c1=O |  | IC50 [1]: 15.5 µM and 13 µM
COCCN1CCCn2cnc(CNC3CCCC3)c2C1 |  | IC50 [1]: 9.13 µM and 12.8 µM
O=C1CC(c2ccc(C(=O)O)cc2)c2ncn(-c3ccccc3)c2N1 (stereo not given) |  | IC50 [1]: 17.3 µM and 20.1 µM
Cc1ccn(C)c(=O)c1NC(=O)N(C)Cc1cccc(OC(C)C)c1 |  | IC50 [1]: 18.1 µM and 21.6 µM
CCCn1nc2c(cc1=O)CN(CCCN1CCCC1=O)CC2 |  | IC50 [1]: 48.6 µM and 55.3 µM
COCCN1CCC(C)(c2cc(O)[nH]n2)CC1 |  | IC50 [1]: 71.4 µM and 66.4 µM
N#Cc1cccc(SCCS(N)(=O)=O)c1 | > 195 | Percent Effect [3]: -35.02%
O=C(C1=NN(Cc2ccccc2)c2ccccc2S1(=O)=O)N1CCCC1 |  | IC50 [1]: 40.6 µM and 39.5 µM
NC(=O)NC(=O)CCN1CCN(CC2CC2)c2ccccc21 |  | IC50 [1]: > 100 µM
C[C@H](NS(C)(=O)=O)C(=O)NCc1cc(-c2ccco2)n[nH]1 |  | IC50 [1]: > 100 µM
COc1ccc(CCN)cc1-c1ccc(C(N)=O)cc1 |  | IC50 [1]: 48.8 µM and 28 µM
CC(=O)Cc1c(C)nn(-c2cncc(N)c2)c1C |  | IC50 [1]: 33.4 µM and 30.1 µM
CCc1nnc2n1CCN(C(=O)c1ccc3[nH]cnc3c1)C2 | > 195 | Percent Effect [3]: 19.35%

Compound | IC50 [2] [µM] | also measured
O=C(NCCCO)Nc1cccc(Cl)c1F | > 195 | Percent Effect [3]: 24.34%
O=C1CN(Cc2nnc(-c3ccccc3Br)o2)CCN1 | > 195 | Percent Effect [3]: 12.25%
CC(Cn1cccn1)NC(=O)Nc1ccc(N(C)C)nc1 (stereo not given) | > 195 | Percent Effect [3]: 0.4135%
CC(=O)N1CCCC(c2ccc(Cc3ccccc3)cn2)C1 (stereo not given) | > 195 | IC50 [4]: 23.5 µM; IC50 [5]: 15.3 µM
NC(=O)C1CCN(C(=O)CCn2ccc3cc(Br)ccc32)CC1 | > 195 | Percent Effect [3]: -11.99%
O=C1CN(Cc2nnc(-c3ccc(Br)cc3)o2)CCN1 | > 195 | Percent Effect [3]: -48.54%
CCO[C@H]1CC[C@H]2[C@@H]1OCCN2C(=O)COc1ccccc1 | > 195 | IC50 [4]: > 50.1 µM; IC50 [5]: > 50.1 µM
CO[C@H]1CCN(Cc2ccoc2)C[C@@H]1Cc1ccccc1.O=C(O)C(F)(F)F | > 195 | pIC50 [6]: 5.889; IC50 ([6]; Plasmodium falciparum): 1.2 µM
CN(C)C(=O)c1cccc(CN2CCN(CCO)CC2)c1 | > 195 | IC50 [7]: > 100 µM
OCCNc1nccc(-c2c[nH]nc2-c2ccco2)n1 | > 195 | IC50 [8]: > 50.1 µM
COc1cccc(CNCCc2cc(F)cc3c2OCOC3)c1 | > 195 | Percent Effect [3]: 75.77%
COCCC(=O)N1CCC(C(=O)c2cc(C)cnc2N)CC1 | > 195 | IC50 [4]: > 50.1 µM; IC50 [5]: > 50.1 µM
CC(=O)N1CCN(CC2CCOc3ccccc3C2)CC1 (stereo not given) | > 195 | Percent Effect [3]: -45.54%
COCCNc1nnc(-c2ccc(C)nc2)s1 | > 195 | IC50 [8]: > 50.1 µM
CN(Cc1cnn(C)c1)C(=O)NC1CCS(=O)(=O)C1 (stereo not given) | > 195 | Percent Effect [3]: -4.908%
CN(CCCC#N)C1CCCN(Cc2noc(C3CC3)n2)C1 (stereo not given) | > 195 | Percent Effect [3]: -67.8%
CN(Cc1cnn(C)c1)C(=O)NC1CCC(O)CC1 (stereo not given) | > 195 | Percent Effect [3]: 15.72%
O=C(NCCO)Nc1cccc(Cl)c1SC(F)F | > 195 | Percent Effect [3]: -20.44%
Cc1cnn(CC(C)NCc2nc(-c3ccco3)no2)c1 (stereo not given) | > 195 | Percent Effect [3]: -25.07%
COc1ccc2c(c1)C(=O)CC1(CCN(Cc3ccc(F)cc3)CC1)O2 | > 195 | IC50 [7]: > 100 µM
NC(=O)CN1CCC2(CC1)CC(=O)c1ccc3ccccc3c1O2 | > 195 | IC50 [7]: > 100 µM
Cc1ccc(CNC(=O)Nc2cc(C(F)(F)F)c[nH]c2=O)cn1 | > 195 | Percent Effect [3]: -4.568%
Cl.NC(=O)COc1ccc(CNCc2ccc(F)c(F)c2)cc1 | > 195 | Percent Effect [3]: 13.17%

Compound | IC50 [2] [µM] | also measured
O=C1CC2(CCN(CC3CCOC3)CC2)CN1Cc1cc(F)cc(F)c1 (stereo not given) | > 195 | Percent Effect [3]: -23.28%
Cc1cc(NC(=O)NCCc2cccs2)n(C)n1 | > 195 | Percent Effect [3]: 9.063%
O=C(CCc1cc(O)no1)N1CCCC(COc2ccc(F)cc2)C1 (stereo not given) | > 195 | Percent Effect [3]: 28.51%
Cn1ccc(-c2cc(C(=O)N3CCC(O)CC3)c3ccccn23)n1 | > 195 | IC50 [7]: > 100 µM; IC50 [4]: > 50.1 µM; IC50 [5]: > 50.1 µM
O=C(c1ccc[nH]1)N1CCN(CC2CCOc3ccccc3C2)CC1 (stereo not given) | > 195 | Percent Effect [3]: -5.036%
Cc1ccc(NC(=O)Cn2cc(I)cn2)cc1 | > 195 | Percent Effect [3]: -1.868%
CCN1CC[C@@H]2OC[C@H](C(=O)NCc3cccs3)C[C@@H]2C1 | > 195 | IC50 [7]: > 100 µM
Cc1ccc(CC(=O)N2CCOC(c3nc(C)n[nH]3)C2)cn1 (stereo not given) | > 195 | Percent Effect [3]: 13.87%
Cn1ccnc1-c1cccc(NC(=O)NCCCO)c1 | > 195 | Percent Effect [3]: -1.514%
O=C(CCc1ccsc1)NCC1CCN(c2ccccc2)C1 (stereo not given) | > 195 | Percent Effect [3]: 6.73%
CCc1cnc(CN(C(C)=O)C2CCN(CCS(C)(=O)=O)C2)o1 (stereo not given) | > 195 | Percent Effect [3]: -22.31%
COc1cc(N(C)CCC(O)c2ccccc2)ncn1 (stereo not given) | > 195 | 
CC(Cn1cccn1)NC(=O)NCCc1ccsc1 (stereo not given) | > 195 | 
CN(Cc1nnc2n1CCC2)C(=O)c1ccc2c(c1)OCCO2 | > 195 | 
COc1c(CNC2CCCN(c3ncccn3)C2)c(C(C)C)nn1C (stereo not given) | > 195 | 
O=C1CCC(=O)N1c1nn(Cc2c(F)cccc2Cl)cc1Cl | > 195 | 
Cc1cc(CN2CC[C@@H]3O[C@@H](c4nnc(C)o4)C[C@H]3C2)no1 | > 195 | 
CO[C@H]1CN(c2ccccc2)S(=O)(=O)[C@@]12CCN(Cc1ccccc1)C2 | > 195 | 
Cc1nc(C2(O)CCCNCC2)sc1CCOc1ccc(F)cc1 (stereo not given) | > 195 | 
COc1cccc(CN2CC(O)CN(C(=O)C(C)(C)C)CC2=O)c1OC (stereo not given) | > 195 | 
O=C(c1ccccn1)N1CCC(Cc2cnc3[nH]ccc3c2)CC1 | > 195 | 
Nc1cc2c(nn1)CCN(C(=O)C1CCc3ccccc31)C2 (stereo not given) | > 195 | 
Cc1noc([C@@H]2C[C@H]3CN(CC4CCOCC4)C[C@H]3O2)n1 | > 195 | 

Compound | IC50 [2] [µM] | also measured
Cc1ccc(C(=O)NS(=O)(=O)c2ccccc2F)c(=O)[nH]1 | > 195 | 
Cc1nn(C)c(C)c1C1COCCN1C(=O)c1ccc(Cl)o1 (stereo not given) | > 195 | 
N#CCCN1CC(O)CN(C(=O)c2cccc(C(F)(F)F)c2)CC1=O (stereo not given) | > 195 | 
CCN(CC1CCOC1)C(=O)c1cc(F)ccc1N1CCN(C)CC1 (stereo not given) | > 195 | 
O=C(Cc1cccc(O)c1)N1CCCC(O)(CN2CCCC2)CC1 (stereo not given) | > 195 | 
Fc1ccc(-c2nc(CN3CCCC3Cn3cncn3)co2)cc1 (stereo not given) | > 195 | 
CCc1ncnc2c1CCN(CCOC)CC2 | > 195 | 
O=C(c1ccc(F)cc1)N1C[C@@H]2COC[C@]2(COc2cccnc2)C1 | > 195 | 
Cn1cccc1C(=O)N1CC2(CCN(C(=O)c3cccnc3)C2)C1 | > 195 | 
O=C(c1cccnc1)N1CCC(c2nc(O)cc(-c3ccncc3)n2)C1 (stereo not given) | > 195 | 
Oc1cc(CC2COCCN(CC3(O)CCOCC3)C2)ncn1 (stereo not given) | > 195 | 
CC(C)(Oc1ccc(C(N)=O)cc1)C(=O)N(CCC#N)CC1CCCO1 (stereo not given) | > 195 | 
CCc1cc(O)nc(C2CCCN2C(=O)COC)n1 (stereo not given) | > 195 | 
CCn1c2c(ccc1=O)CC(NCc1cnn(C)c1)CC2 (stereo not given) | > 195 | 
CCOCC1c2c(ncn2C)CCN1C(=O)c1cscn1 (stereo not given) | > 195 | 
CO[C@H]1CN(S(=O)(=O)c2ccc(F)cc2)C[C@@]12CCCO2 | > 195 | IC50 [7]: > 100 µM
O=C(c1cccnn1)N1C[C@@H]2CC[C@H](Oc3cccc(F)c3)[C@@H]2C1 | > 195 | 
Cc1c[nH]nc1C1CCN(S(=O)(=O)N(C)C)C1 (stereo not given) | > 195 | 
CN(C)C(CNCc1nc(-c2ccsc2)no1)c1cccs1 (stereo not given) | > 195 | 
COc1ccccc1C(=O)N1CC(=O)N(CC2CC2)CC(O)C1 (stereo not given) | > 195 | 
CN(C)c1ccc(CC2COCCN(Cc3nccn3C)C2)nn1 (stereo not given) | > 195 | 
CCN(CC)S(=O)(=O)N1CCCC(c2ncc3c(n2)CCN(C)C3)C1 (stereo not given) | > 195 | 
CC1CCCCN1c1nc2c(c(=O)[nH]1)CCN(Cc1ccccc1O)C2 (stereo not given) | > 195 | 
